Results from US10864215B2, “Use of phosphoinositide 3-kinase inhibitors for treatment of vascular malformations” (MEMORIAL SLOAN-KETTERING CANCER CENTER, priority 2015, dated 2020).
Entries after “also recorded” stand apart in the source; their conditions may differ.

How the values were obtained:
ANG2 = ANG2 mRNA (RT-qPCR) and protein (ELISA) in PIK3CA^H1047R ECs; type: cell-based, human; conditions: serum-starved, treated overnight, BYL719 1 μM, MK2206 1 μM, Everolimus 50 nM; for ANG2 protein expression: ELISA; for ANG2 mRNA expression: RT-qPCR
[1] = test system: PIK3CA^CAG-CreER VM-derived allografts; assay: VM allografts treated topically with BYL719 1% (w/w) cream; type: in vivo, mice; conditions: topical, daily, BYL719 1% (w/w) in two cream formulations (free and soluble BYL719), 3 weeks
Method: For the formulation of topical preparations, the cream base Versatile™ (Fargon) was used, which allows the incorporation of active principles and has the ability to vanish rapidly into the skin of the mice. Two different formulations using BYL719 at 1% (w/w) were prepared as follows. Free BYL719: This formulation was generated by mixing BYL719 in powder with the base cream and homogenized using an Ultra-Turrax to achieve a similar distribution of the active principle. Soluble BYL719: For this formula, BYL719 powder was dissolved in a small volume of DMSO (400 mg×mL^−1). This concentrated solution was then incorporated into the base cream with gentle agitation, achieving a homogeneous distribution of the active principle. The topical formulations were applied into the mice lesions at daily-basis and VM growth was assessed as described above.

[2] = test system: phosphorylated AKT (T308 and S473); assay: Western blot of HUVEC cells expressing TEK L914F; type: cell-based, human; conditions: HUVEC stably expressing TEK L914F, treated 4 hours
Method: FIGS. 27A-27B. Treatment of VM with PI3K inhibitors. (A) Western blot of HUVEC cells transduced with TEK L914F mutation and probed with the indicated antibodies. Cells were treated for 4 hours with the indicated doses of BYL719. (B) Representative images of the allograft VM treated with the topical formulation of BYL719. Free and soluble refer to the two different preparations of the topical formula. Arrows indicate the area affected by the VM allograft.
Proteins were extracted using RIPA buffer and Western blot was performed usim standard methods. Antibodies for Western blot were: pAKT (S473) (Cell Signaling; 4060), pAKT (T308) (Cell Signaling; 2965), AKT (Cell Signaling; 9272), pS6K (T389) (Cell Signaling; 9205), S6K (Cell Signaling; 2708), pS6 (S240/4) (Cell Signaling; 5364), pS6 (S235/6) (Cell Signaling; 4858), S6 (Cell Signaling; 2217), actin (Cell Signaling; 4970). Tube formation assay was performed using Matrigel-coated 48 multiwells as a substrate. 10^5 EC were seeded in EBM-2 media without FBS and analyzed after 6 hours for tube formation.

[3] = test system: PIK3CA^CAG-CreER VM-derived allografts; assay: PIK3CA^CAG-CreER VM-derived allografts in nude mice, oral treatment; type: in vivo; conditions: for VM volume / apoptosis (cleaved caspase 3 in CD31-positive cells) / proliferation (BrdU incorporation in CD31-positive cells): allografts in nude mice, daily p.o., one week, BYL719 50 mg×kg^−1, everolimus 10 mg×kg^−1, propranolol 40 mg×kg^−1
Method: For allograft studies, vascular lesions isolated from PIK3CA^CAG-CreER mice were rinsed with ice cold PBS, minced, resuspended with cold 1:1 DMEM/Matrigel, and injected subcutaneously in six-week-old female athymic Foxn1^nu nude mice. […] The following formula was applied:
[formula] After one week of treatment, VM were measured and harvested for further analysis. VM volume was calculated using the following formula: […]
(§1) IHC and IF stainings were performed using Discovery XT processor (Ventana Medical Systems) at the Molecular Cytology Core (MSKCC). Tissue sections were deparaffinized with EZPrep buffer (Ventana Medical Systems), antigen retrieval was performed with CC1 buffer (Ventana Medical Systems). Sections were blocked for 30 minutes with Background Buster solution (Innovex) or 10% normal rabbit serum (for LYVE-1 antibody) followed by avidin/biotin blocking for 8 minutes. Sections were stained with the following antibodies: CD31: (Dianova, DIA-310, 1 μg×mL^−1) for 5 hours, followed by 60 minutes incubation with biotinylated goat anti-rat IgG (Vector labs, PK-4004) at 1:200 dilution. The detection was performed with Streptavidin-HRP D (Ventana Medical Systems), followed by incubation with Alexa Fluor 488 (Invitrogen, T20922); BrdU: sections were pretreated with Protease K (5 μg×mL^−1) and incubated with anti-BrdU (Roche, 1170376, 1 μg×mL^−1) for 5 hours, followed by 60 minutes incubation with biotinylated horse anti-mouse IgG (Vector Labs, MKB-22258). The detection was performed with Streptavidin-HRP D (Ventana Medical Systems), followed by incubation with Alexa Fluor 594 (Invitrogen, T20935). When two markers were used, stainings were performed consecutively according to the procedure described above. After staining, slides were counterstained with DAPI (Sigma, D9542, 5 μg×mL^−1) for 10 min and coverslipped with Mowiol. Antibodies were used as follows: GLUT-1: Sections were incubated with anti-GLUT-1 antibody (Chemicon, AB1340, 0.5 μg×mL^−1) for 4 hours, followed by 60 minutes incubation with biotinylated goat anti-rabbit IgG (Vector labs, PK6101) at 1:200 dilution; LYVE-1: Sections were incubated with anti-LYVE-1 antibody (R&D Systems, AF2125, 1 μg×mL^−1) for 3 hours, followed by 60 minutes incubation with biotinylated rabbit anti-goat IgG (Vector, BA-5000) at 1:200 dilution.; and WT-1: Sections were incubated with anti-WT-1 antibody (Abcam, Ab89901, 1:50 dilution) for 1 hour, followed by 60 minutes incubation with biotinylated rabbit anti-goat IgG (Vector, BA-5000) at 1:200 dilution. For GLUT-1, LYVE-1, and WT-1 IHC, detection was performed with DAB detection kit (Ventana Medical Systems) according to manufacturer instructions, followed by counterstaining with hematoxylin (Ventana Medical Systems) and coverslipped with Permount (Fisher Scientific).

PIK3CA^Tie2-Cre embryos = assay: Treatment of pregnant PIK3CA^Tie2-Cre mice, embryo vascular phenotype; type: in vivo
Method: as §1, with “For the treatment of pregnant PIK3CA^Tie2-Cre mice, BYL719 was administered orally three times at E7.5, E8.5, and E9.5. Two hours after the last treatment, embryos were harvested and characterized. IHC and” for “IHC and”

[4] = VVM in nude mice, BYL719 50 mg×kg-1 daily p.o.
[5] = pregnant mice, BYL719 50 mg×kg^−1 p.o., 48, 24 and 2 hours before harvest

Row | SMILES | ANG2 protein expression (ANG2) | ANG2 mRNA expression (ANG2) | regression of skin lesions (VM volume) [1] | amount of phosphorylated AKT (T308 and S473) [2] | phospho-AKT (S473) levels [3, 4] | phospho-S6RP (S240/4) levels [3, 4] | VM volume [3] | apoptosis (cleaved caspase 3 in CD31-positive cells) [3] | proliferation (BrdU incorporation in CD31-positive cells) [3] | meningeal, cardinal vein and dorsal aorta blood vessel morphology (histology, CD31 coronal sections) (PIK3CA^Tie2-Cre embryos; pregnant mice treated, E9.5 embryos) | Phospho-AKT staining in PIK3CA^Tie2-Cre and PIK3CA^WT embryos (PIK3CA^Tie2-Cre embryos; pregnant mice treated, versus untreated control embryos) | cephalic and intersomitic small blood vessel formation (CD31 whole-mount staining) (PIK3CA^Tie2-Cre embryos; [5]) | overall body size of PIK3CA^Tie2-Cre E9.5 embryos (PIK3CA^Tie2-Cre embryos; [5])
1 | Cc1nc(NC(=O)N2CCC[C@H]2C(N)=O)sc1-c1ccnc(C(C)(C)C(F)(F)F)c1 [BYL719] | able to rescue | able to rescue | rapid and sustained regression of skin lesions | decreased | decrease | decrease | decrease in VM volume | increased apoptosis | decrease in proliferation; also recorded: reduced proliferation | reestablished meningeal, cardinal vein, and dorsal aorta blood vessels morphology | strong reduction | restored cephalic and intersomitic small blood vessel formation | comparable to PIK3CA^WT littermates
2 | Cl.Cl.NC1(c2ccc(-c3nc4ccn5c(=O)[nH]nc5c4cc3-c3ccccc3)cc2)CCC1 [MK2206, 8-[4-(1-aminocyclobutyl)phenyl]-9-phenyl-1,2,4-triazolo[3,4-f][1,6]naphthyridin-3(2H)-one, dihydrochloride] | able to rescue | able to rescue |  |  |  |  |  |  |  |  |  |  | 
3 | CO[C@H]1C[C@@H]2CC[C@@H](C)[C@@](O)(O2)C(=O)C(=O)N2CCCC[C@H]2C(=O)O[C@H]([C@H](C)C[C@@H]2CC[C@@H](OCCO)[C@H](OC)C2)CC(=O)[C@H](C)/C=C(\C)[C@@H](O)[C@@H](OC)C(=O)[C@H](C)C[C@H](C)/C=C/C=C/C=C/1C [everolimus] |  |  |  |  |  |  | partially decreased VM size; also recorded: greatest growth inhibition | did not increase apoptosis | partially decreased |  |  |  | 
